Results taken from patent publication US20240024273A1, “TOPICAL ADMINISTRATION OF 2-(DIETHYLAMINO)ETHYL 2-(4-ISOBUTYLPHENYL)PROPRIONATE FOR TREATMENT OF DISEASES” (TECHFIELDS PHARMA CO., LTD., priority 2020, published 2024).

Experiments:
Assay type in all cases: in vivo, human
[1] = tested on: osteoarthritis of the knee; experiment: Second Phase 2 study: WOMAC difficulty performing daily activities (functional ability) subscale score; conditions: all subjects; 17.5 mg/knee BID, n = 52; Week 12
From the text: (§1) This is a Phase 2, multicenter, randomized, double blind (within dose), Ibuprofen-placebo controlled, parallel group, dose range finding study to evaluate the efficacy, safety, and PK of 2-(diethylamino)ethyl 2-(4-isobutylphenyl)propionate spray in adult subjects with clinically symptomatic OA of the knee. For subjects with bilateral knee pain, both knees will be treated, but the most symptomatic knee (ie, the most painful knee as measured by the Western Ontario and McMaster University Osteoarthritis Index [WOMAC® 3.1] pain subscale score at Screening) will be designated as the target knee for efficacy analyses. For subjects with unilateral knee pain, only the symptomatic (target) knee will be treated.
(§2) The VAS version of the WOMAC will be used for the Primary and Secondary Efficacy Endpoints. Efficacy endpoints will be assessed at Screening and Baseline (Day 1) and at the Week 2, Week 4, Week 8, and Week 12/EOS visits.
(§3) 4.9.2. Secondary Efficacy Endpoints: • 1. Change from Baseline in the WOMAC (VAS) pain subscale score for the target knee at 2, 8, and 12 weeks of treatment; • 2. Change from Baseline in the WOMAC (VAS) stiffness subscale scores for the target knee and WOMAC (VAS) functional ability subscale scores at 2, 4, 8, and 12 weeks of treatment; • 3. Change from Baseline in the overall WOMAC (VAS) score at 2, 4, 8, and 12 weeks of treatment; • 4. Subject's global assessment of disease status of the target knee at 2, 4, 8, and 12 weeks of treatment; • 5. Subject's global assessment of response to therapy of the target knee at 2, 4, 8, and 12 weeks of treatment; • 6. Amount of rescue medication (acetaminophen) consumed per day for target knee pain.
(§4) The Secondary Efficacy Endpoints, change from Baseline in the WOMAC subscale scores for pain, stiffness, and functional ability, and overall WOMAC score at 2, 4, 8, and 12 weeks of treatment, will be analyzed using the same methods as for the Primary Efficacy Endpoint.

[2] = tested on: osteoarthritis of the knee; experiment: Second Phase 2 study: Investigator's global assessment of disease status (IGADS); conditions: Week 12; for IGADS: Good and Very good / IGADS: Poor and Very Poor / IGADS: fair: first 130 subjects; for IGADS, Good and Very good / IGADS, Poor and Very Poor / IGADS, fair: all subjects
[3] = tested on: osteoarthritis of the knee; experiment: Second Phase 2 study: WOMAC overall score
From the text: as §1, §2, §3, §4

[4] = 17.5 mg/knee BID, Week 12, first 130 subjects
[5] = Week 12, 4.375 mg/knee BID (n = 23), first 130 subjects
[6] = Week 12, 8.75 mg/knee BID (n = 24), first 130 subjects
[7] = Week 12, 17.5 mg/knee BID (n = 19), first 130 subjects
[8] = all subjects, 4.375 mg/knee BID, n = 49, Week 12
[9] = all subjects, 8.75 mg/knee BID, n = 54, Week 12
[10] = all subjects, 17.5 mg/knee BID, n = 52, Week 12

For CCN(CC)CCOC(=O)C(C)c1ccc(CC(C)C)cc1 (centres unmarked) [2-(diethylamino)ethyl 2-(4-isobutylphenyl)propionate], the “WOMAC Difficulty Performing Daily Activities Subscale Scores, Different from placebo (LS Mean)” value [1] was −9.5 mm, the “WOMAC Difficulty Performing Daily Activities Subscale Scores, Week 12 (LS Mean)” value [1] was 28.3 mm and the “IGADS: Good and Very good” value ([2]; 4.375 mg/knee BID (n = 23)) was 43.5%. For the same compound, the “IGADS: Poor and Very Poor” value ([2]; 4.375 mg/knee BID (n = 23)) was 4.3%, the “IGADS: fair” value ([2]; 4.375 mg/knee BID (n = 23)) was 53.2% and the “IGADS: Good and Very good” value ([2]; 8.75 mg/knee BID (n = 24)) was 41.7%. The “IGADS: Poor and Very Poor” value ([2]; 8.75 mg/knee BID (n = 24)) was 4.2%, the “IGADS: fair” value ([2]; 8.75 mg/knee BID (n = 24)) was 54.2% and the “IGADS: Good and Very good” value ([2]; 17.5 mg/knee BID (n = 19)) was 68.4%. The “IGADS: Poor and Very Poor” value ([2]; 17.5 mg/knee BID (n = 19)) was 0%, the “IGADS: fair” value ([2]; 17.5 mg/knee BID (n = 19)) was 31.6% and the “IGADS, Good and Very good” value ([2]; 4.375 mg/knee BID, n = 49) was 40.8%. The “IGADS, Poor and Very Poor” value ([2]; 4.375 mg/knee BID, n = 49) was 8.2%, the “IGADS, fair” value ([2]; 4.375 mg/knee BID, n = 49) was 51.0% and the “IGADS, Good and Very good” value ([2]; 8.75 mg/knee BID, n = 54) was 48.1%. The “IGADS, Poor and Very Poor” value ([2]; 8.75 mg/knee BID, n = 54) was 7.4%, the “IGADS, fair” value ([2]; 8.75 mg/knee BID, n = 54) was 44.4% and the “IGADS, Good and Very good” value ([2]; 17.5 mg/knee BID, n = 52) was 63.5%. The “IGADS, Poor and Very Poor” value ([2]; 17.5 mg/knee BID, n = 52) was 1.9%, the “IGADS, fair” value ([2]; 17.5 mg/knee BID, n = 52) was 34.6% and the “WOMAC overall, difference from oral ibuprofen” value [3, 4] was −15.2 mm. For the same compound, the “WOMAC overall, difference from placebo” value [3, 4] was −18.2 mm, the “efficacy vs oral ibuprofen (3×400 mg/day)” value ([3]; 17.5 mg/knee BID, all subjects) was “higher efficacy than oral ibuprofen (3×400 mg/day), but not significantly” and the efficacy vs placebo ([3]; 17.5 mg/knee BID, all subjects) was “higher efficacy than placebo significantly”. The “WOMAC Overall Scores, Baseline (LS Mean)” value ([3]; 4.375 mg/knee BID (n = 23), first 130 subjects) was 59.3 mm, the “WOMAC Overall Scores, Baseline (LS Mean)” value ([3]; 8.75 mg/knee BID (n = 24), first 130 subjects) was 60.7 mm and the “WOMAC Overall Scores, Baseline (LS Mean)” value ([3]; 17.5 mg/knee BID (n = 19), first 130 subjects) was 63.4 mm. For the same compound, the “WOMAC Overall Scores, % of improvement from Oral Ibuprofen” value [3, 5] was −10.1%, the “WOMAC Overall Scores, % of improvement from baseline” value [3, 5] was −43.2% and the “WOMAC Overall Scores, % of improvement from placebo” value [3, 5] was −13.0%. The “WOMAC Overall Scores, Changes from Baseline (LS Mean)” value (“WOMAC Overall Scores, Changes” for short) [3, 5] was −25.6 mm, the “WOMAC Overall Scores, Different from oral ibuprofen (LS Mean)” value [3, 5] was −4.1 mm and the “WOMAC Overall Scores, Different from placebo (LS Mean)” value [3, 5] was −7.1 mm. For the same compound, the “WOMAC Overall Scores, Week 12 (LS Mean)” value [3, 5] was 33.8 mm, the “WOMAC Overall Scores, % of improvement from Oral Ibuprofen” value [3, 6] was −11.8% and the “WOMAC Overall Scores, % of improvement from baseline” value [3, 6] was −45.1%. For the same compound, the “WOMAC Overall Scores, % of improvement from placebo” value [3, 6] was −14.9%, the “WOMAC Overall Scores, Changes” value [3, 6] was −27.4 mm and the “WOMAC Overall Scores, Different from oral ibuprofen (LS Mean)” value [3, 6] was −5.9 mm. For the same compound, the “WOMAC Overall Scores, Different from placebo (LS Mean)” value [3, 6] was −9.0 mm, the “WOMAC Overall Scores, Week 12 (LS Mean)” value [3, 6] was 33.3 mm and the “WOMAC Overall Scores, % of improvement from Oral Ibuprofen” value [3, 7] was −24.6%. For the same compound, the “WOMAC Overall Scores, % of improvement from baseline” value [3, 7] was −57.7%, the “WOMAC Overall Scores, % of improvement from placebo” value [3, 7] was −27.5% and the “WOMAC Overall Scores, Changes” value [3, 7] was −36.6 mm. The “WOMAC Overall Scores, Different from oral ibuprofen (LS Mean)” value [3, 7] was −15.2 mm, the “WOMAC Overall Scores, Different from placebo (LS Mean)” value [3, 7] was −18.2 mm and the “WOMAC Overall Scores, Week 12 (LS Mean)” value [3, 7] was 26.8 mm. The “WOMAC Overall Scores, % of improvement from Oral Ibuprofen” value [3, 8] was −1.5%, the “WOMAC Overall Scores, % of improvement from baseline” value [3, 8] was −42.8% and the “WOMAC Overall Scores, % of improvement from placebo” value [3, 8] was −6.6%. The “WOMAC Overall Scores, Changes” value [3, 8] was −25.4 mm, the “WOMAC Overall Scores, Week 12 (LS Mean)” value [3, 8] was 34.0 mm and the “WOMAC Overall Scores, % of improvement from Oral Ibuprofen” value [3, 9] was −4.6%. The “WOMAC Overall Scores, % of improvement from baseline” value [3, 9] was −45.9%, the “WOMAC Overall Scores, % of improvement from placebo” value [3, 9] was −9.7% and the “WOMAC Overall Scores, Changes” value [3, 9] was −27.7 mm. For the same compound, the “WOMAC Overall Scores, Different from oral ibuprofen (LS Mean)” value [3, 9] was −2.8 mm, the “WOMAC Overall Scores, Different from placebo (LS Mean)” value [3, 9] was −6.4 mm and the “WOMAC Overall Scores, Week 12 (LS Mean)” value [3, 9] was 32.7 mm. For the same compound, the “WOMAC Overall Scores, % of improvement from Oral Ibuprofen” value [3, 10] was −10.6%, the “WOMAC Overall Scores, % of improvement from baseline” value [3, 10] was −51.9% and the “WOMAC Overall Scores, % of improvement from placebo” value [3, 10] was −15.7%. For the same compound, the “WOMAC Overall Scores, Changes” value [3, 10] was −30.9 mm, the “WOMAC Overall Scores, Different from oral ibuprofen (LS Mean)” value [3, 10] was −6.0 mm and the “WOMAC Overall Scores, Different from placebo (LS Mean)” value [3, 10] was −9.6 mm. The “WOMAC Overall Scores, Week 12 (LS Mean)” value [3, 10] was 28.6 mm and the “average scores in all six subscales” value ([3]; high dose group, Week 12) was “below 30 mm”.
